This note sets out measurements from patent US9232796B2, “Herbicidal compositions comprising 4-amino-3-chloro-5-fluoro-6-(4-chloro-2-fluoro-3-methoxyphenyl) pyridine-2-carboxylic acid or a derivative thereof and acetyl-CoA carboxylase (ACCase) inhibitors” (DOW AGROSCIENCES LLC, priority 2012, dated 2016).

Several values for one entry are separate records, joined by “and”; a condition that tells them apart may be missing. Equal values may be shown once.

One experiment deals with SCPJU. Kind of experiment: Example I postemergence foliar-applied, greenhouse, direct seeded rice weeds. The class given is in vivo, Schoenoplectus juncoides (Roxb.) Palla. Summed up:
(§1)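 Weeds grown in loam/sandy loam–calcareous grit (80:20) under greenhouse conditions (~14 h photoperiod, ~29/26 °C day/night) and treated at first to fourth true leaf stage. Compound A (acid or esters, SC) and ACCase-inhibiting herbicides, alone and combined, sprayed at 187 L/ha with 1.25% v/v crop oil concentrate. Injury rated visually (0–100%) after ~3 weeks; expected mixture effects by Colby's equation.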

For the next experiment, the system named is CYPIR. The description is as above. The experiment is classed as in vivo, Cyperus iria L. An outline of the steps: as §1

As to `COc1c(Cl)ccc(-c2nc(C(=O)O)c(Cl)c(N)c2F)c1F` [Compound A Acid, 4-amino-3-chloro-6-(4-chloro-2-fluoro-3-methoxyphenyl)-5-fluoropyridine-2-carboxylic acid], in the experiment on SCPJU (4.38 gae/ha), the “Visual Weed Control (%) - 20 DAA SCPJU Obs” value is 60% and 70%; the “Visual Weed Control (%) - 22 DAA SCPJU Obs” value came out at 60%. For the same compound, the “Visual Weed Control (%) - 20 DAA SCPJU Obs” value with SCPJU (8.75 gae/ha) turned out to be 95%. In addition, in the experiment on CYPIR (4.38 gae/ha), the “Visual Weed Control (%) - 22 DAA CYPIR Obs” value is 15%.

As to `COc1c(Cl)ccc(-c2nc(C(=O)OCc3ccccc3)c(Cl)c(N)c2F)c1F` [Compound A Benzyl Ester, benzyl ester of 4-amino-3-chloro-5-fluoro-6-(4-chloro-2-fluoro-3-methoxy-phenyl)pyridine-2-carboxylic acid], the “Visual Weed Control (%) - 20 DAA SCPJU Obs” value in the experiment on SCPJU (4.38 gae/ha) was found to be 30%; with SCPJU (8 gae/ha) it was 70%; in the experiment on SCPJU (8.75 gae/ha), 60%; in the experiment on SCPJU (16 gae/ha), 85%. For the same compound, the “Visual Weed Control (%) - 21 DAA SCPJU Obs” value in the experiment with SCPJU (8 gae/ha) was found to be 85%. Further, the “Visual Weed Control (%) - 20 DAA CYPIR Obs” value is listed as 15% with CYPIR (4.38 gae/ha) and 35% in the experiment on CYPIR (8.75 gae/ha). The “Visual Weed Control (%) - 22 DAA CYPIR Obs” value in the experiment with CYPIR (8 gae/ha) is recorded as 20%; in the experiment with CYPIR (16 gae/ha) it was 85%; in the experiment with CYPIR (32 gae/ha), 100%.
